In patent publication US20260355323A1, “CEREBLON-RECRUITING BCL-XL/BCL-2 DUAL DEGRADERS” (University of Florida Research Foundation, Incorporated, priority 2022, published 2026):

How the values were obtained:
WI-38 NC = assay: Senolytic activity, cell viability (PrestoBlue HS), WI-38 NC; type: cell-based; conditions: Homo sapiens, 72 h
Experimental: WI-38 and HUVEC cells were incubated with increasing concentrations of degraders for 72 h. Cell viability was measured using PrestoBlue HS cell viability reagent.

[1] = system: RS4;11 acute lymphoblastic leukemia cells; assay: Cell viability, tetrazolium-based MTS assay, RS4;11; conditions: Homo sapiens, RS4;11, 48 h, read-out: Anti-Cancer Activity EC50 (48 hr), RS4
Experimental: (§1) Acute lymphoblastic leukemia cells (MOLT-4 and RS4;11) were incubated with increasing concentrations of Bcl-xL/Bcl-2 degraders for 48 h. Cell viability was measured by tetrazolium-based MTS assay.

[2] = system: MOLT-4 acute lymphoblastic leukemia cells; assay: Cell viability, tetrazolium-based MTS assay, MOLT-4; conditions: Homo sapiens, MOLT-4, 48 h; read-out: Anti-Cancer Activity EC50 (48 hr), MOLT-4
Experimental: as §1

C[C@@]1(CN2CCN(C(=O)CCCCCN3CCN(c4ccc5c(c4)CN(C4CCC(=O)NC4=O)C5=O)CC3)CC2)CCC(c2ccc(Cl)cc2)=C(CN2CCN(c3ccc(C(=O)NS(=O)(=O)c4ccc(N[C@H](CCN5CCCOCC5)CSc5ccccc5)c(S(=O)(=O)C(F)(F)F)c4)cc3)CC2)C1 (stereo partly drawn) [Compound 3, N-((4-(((R)-4-(1,4-oxazepan-4-yl)-1-(phenylthio)butan-2-yl)amino)-3-((trifluoromethyl)sulfonyl)phenyl)sulfonyl)-4-(4-(((4R)-4′-chloro-4-((4-(6-(4-(2-(2,6-dioxopiperidin-3-yl)-1-oxoisoindolin-5-yl)piperazin-1-yl)hexanoyl)piperazin-1-yl)methyl)-4-methyl-3,4,5,6-tetrahydro-[1,1′-biphenyl]-2-yl)methyl)piperazin-1-yl)benzamide]
EC50 (WI-38 NC): > 10000 nM
EC50 [1]: < 1 nM
EC50 [2]: < 1 nM

CC1(CN2CCN(c3ncc(C(=O)NCCNc4cccc5c4C(=O)N(C4CCC(=O)NC4=O)C5=O)cn3)CC2)CCC(c2ccc(Cl)cc2)=C(CN2CCN(c3ccc(C(=O)NS(=O)(=O)c4ccc(N[C@H](CCN5CCOCC5)CSc5ccccc5)c(S(=O)(=O)C(F)(F)F)c4)cc3)CC2)C1 (stereo partly drawn) [Compound 19, 2-(4-((4′-chloro-4-methyl-6-((4-(4-(((4-(((R)-4-morpholino-1-(phenylthio)butan-2-yl)amino)-3-((trifluoromethyl)sulfonyl)phenyl)sulfonyl)carbamoyl)phenyl)piperazin-1-yl)methyl)-2,3,4,5-tetrahydro-[1,1′-biphenyl]-4-yl)methyl)piperazin-1-yl)-N-(2-((2-(2,6-dioxopiperidin-3-yl)-1,3-dioxoisoindolin-4-yl)amino)ethyl)pyrimidine-5-carboxamide]
EC50 [1]: 10 to 100 nM
EC50 [2]: 1 to 10 nM

CC1(CN2CCN(c3ncc(C(=O)NCCCCNc4cccc5c4C(=O)N(C4CCC(=O)NC4=O)C5=O)cn3)CC2)CCC(c2ccc(Cl)cc2)=C(CN2CCN(c3ccc(C(=O)NS(=O)(=O)c4ccc(N[C@H](CCN5CCOCC5)CSc5ccccc5)c(S(=O)(=O)C(F)(F)F)c4)cc3)CC2)C1 (stereo partly drawn) [Compound 20, 2-(4-((4′-chloro-4-methyl-6-((4-(4-(((4-(((R)-4-morpholino-1-(phenylthio)butan-2-yl)amino)-3-((trifluoromethyl)sulfonyl)phenyl)sulfonyl)carbamoyl)phenyl)piperazin-1-yl)methyl)-2,3,4,5-tetrahydro-[1,1′-biphenyl]-4-yl)methyl)piperazin-1-yl)-N-(4-((2-(2,6-dioxopiperidin-3-yl)-1,3-dioxoisoindolin-4-yl)amino)butyl)pyrimidine-5-carboxamide]
EC50 [1]: 10 to 100 nM
EC50 [2]: 1 to 10 nM

CC1(CN2CCN(c3ncc(C(=O)NCCCCCCNc4cccc5c4C(=O)N(C4CCC(=O)NC4=O)C5=O)cn3)CC2)CCC(c2ccc(Cl)cc2)=C(CN2CCN(c3ccc(C(=O)NS(=O)(=O)c4ccc(N[C@H](CCN5CCOCC5)CSc5ccccc5)c(S(=O)(=O)C(F)(F)F)c4)cc3)CC2)C1 (stereo partly drawn) [Compound 21, 2-(4-((4′-chloro-4-methyl-6-((4-(4-(((4-(((R)-4-morpholino-1-(phenylthio)butan-2-yl)amino)-3-((trifluoromethyl)sulfonyl)phenyl)sulfonyl)carbamoyl)phenyl)piperazin-1-yl)methyl)-2,3,4,5-tetrahydro-[1,1′-biphenyl]-4-yl)methyl)piperazin-1-yl)-N-(6-((2-(2,6-dioxopiperidin-3-yl)-1,3-dioxoisoindolin-4-yl)amino)hexyl)pyrimidine-5-carboxamide]
IC50 [1]: 10000 to 100000 nM
EC50 [2]: 10 to 100 nM

CC1(CN2CCN(c3ccc(OCCCCCN4CCN(c5cccc6c5C(=O)N(C5CCC(=O)NC5=O)C6=O)CC4)cn3)CC2)CCC(c2ccc(Cl)cc2)=C(CN2CCN(c3ccc(C(=O)NS(=O)(=O)c4ccc(N[C@H](CCN5CCOCC5)CSc5ccccc5)c(S(=O)(=O)C(F)(F)F)c4)cc3)CC2)C1 (stereo partly drawn) [Compound 22, 4-(4-((4′-chloro-4-((4-(5-((5-(4-(2-(2,6-dioxopiperidin-3-yl)-1,3-dioxoisoindolin-4-yl)piperazin-1-yl)pentyl)oxy)pyridin-2-yl)piperazin-1-yl)methyl)-4-methyl-3,4,5,6-tetrahydro-[1,1′-biphenyl]-2-yl)methyl)piperazin-1-yl)-N-((4-(((R)-4-morpholino-1-(phenylthio)butan-2-yl)amino)-3-22 ((trifluoromethyl)sulfonyl)phenyl)sulfonyl)benzamide]
EC50 [1]: 10 to 100 nM
EC50 [2]: 10 to 100 nM

CC1(CN2CCN(c3ccc(C#CCCCN4CCN(c5cccc6c5C(=O)N(C5CCC(=O)NC5=O)C6=O)CC4)cn3)CC2)CCC(c2ccc(Cl)cc2)=C(CN2CCN(c3ccc(C(=O)NS(=O)(=O)c4ccc(N[C@H](CCN5CCOCC5)CSc5ccccc5)c(S(=O)(=O)C(F)(F)F)c4)cc3)CC2)C1 (stereo partly drawn) [Compound 23, 4-(4-((4′-chloro-4-((4-(5-(5-(4-(2-(2,6-dioxopiperidin-3-yl)-1,3-26 dioxoisoindolin-4-yl)piperazin-1-yl)pent-1-yn-1-yl)pyridin-2-yl)piperazin-1-yl)methyl)-4-methyl-3,4,5,6-tetrahydro-[1,1′-biphenyl]-2-yl)methyl)piperazin-1-yl)-N-((4-(((R)-4-morpholino-1-(phenylthio)butan-2-yl)amino)-3-28 ((trifluoromethyl)sulfonyl)phenyl)sulfonyl)benzamide]
EC50 [1]: 10 to 100 nM
EC50 [2]: 10000 to 100000 nM

CC1(CN2CCCN(c3ccc4c(c3)CN(C3CCC(=O)NC3=O)C4=O)CC2)CCN(C[C@]2(C)CCC(c3ccc(Cl)cc3)=C(CN3CCN(c4ccc(C(=O)NS(=O)(=O)c5ccc(N[C@H](CCN6CCCOCC6)CSc6ccccc6)c(S(=O)(=O)C(F)(F)F)c5)cc4)CC3)C2)CC1 (stereo partly drawn) [Compound 136, N-((4-(((R)-4-(1,4-oxazepan-4-yl)-1-(phenylthio)butan-2-yl)amino)-3-((trifluoromethyl)sulfonyl)phenyl)sulfonyl)-4-(4-(((4R)-4′-chloro-4-((4-((4-(2-(2,6-dioxopiperidin-3-yl)-1-oxoisoindolin-5-yl)-1,4-diazepan-1-yl)methyl)-4-methylpiperidin-1-yl)methyl)-4-methyl-3,4,5,6-tetrahydro-[1,1′-biphenyl]-2-yl)methyl)piperazin-1-yl)benzamide]
EC50 [1]: < 1 nM
EC50 [2]: < 1 nM

C[C@@]1(CN2CCC(CN3CCN(c4ccc(C(=O)N[C@H]5CCC(=O)NC5=O)c(F)c4)CC3)CC2)CCC(c2ccc(Cl)cc2)=C(CN2CCN(c3ccc(C(=O)NS(=O)(=O)c4ccc(N[C@H](CCN5CCCOCC5)CSc5ccccc5)c(S(=O)(=O)C(F)(F)F)c4)cc3)CC2)C1 [Compound 137, 4-(4-((1-(((R)-6-((4-(4-(((4-(((R)-4-(1,4-oxazepan-4-yl)-1-(phenylthio)butan-2-yl)amino)-3-((trifluoromethyl)sulfonyl)phenyl)sulfonyl)carbamoyl)phenyl)piperazin-1-yl)methyl)-4′-chloro-4-methyl-2,3,4,5-tetrahydro-[1,1′-biphenyl]-4-yl)methyl)piperidin-4-yl)methyl)piperazin-1-yl)-N-((S)-2,6-dioxopiperidin-3-yl)-2-fluorobenzamide]
EC50 [1]: 1 to 10 nM
EC50 [2]: 1 to 10 nM

C[C@@]1(CN2CCC(CN3CCN(c4ccc(C(=O)N[C@@H]5CCC(=O)NC5=O)c(F)c4)CC3)CC2)CCC(c2ccc(Cl)cc2)=C(CN2CCN(c3ccc(C(=O)NS(=O)(=O)c4ccc(N[C@H](CCN5CCCOCC5)CSc5ccccc5)c(S(=O)(=O)C(F)(F)F)c4)cc3)CC2)C1 [Compound 138, 4-(4-((1-(((R)-6-((4-(4-(((4-(((R)-4-(1,4-oxazepan-4-yl)-1-(phenylthio)butan-2-yl)amino)-3-((trifluoromethyl)sulfonyl)phenyl)sulfonyl)carbamoyl)phenyl)piperazin-1-yl)methyl)-4′-chloro-4-methyl-2,3,4,5-tetrahydro-[1,1′-biphenyl]-4-yl)methyl)piperidin-4-yl)methyl)piperazin-1-yl)-N-((R)-2,6-dioxopiperidin-3-yl)-2-fluorobenzamide]
EC50 [1]: 1 to 10 nM
EC50 [2]: 1 to 10 nM

C[C@@]1(CN2CCC(CN3CCN(c4ccc(C(=O)N[C@H]5CCC(=O)NC5=O)cc4)CC3)CC2)CCC(c2ccc(Cl)cc2)=C(CN2CCN(c3ccc(C(=O)NS(=O)(=O)c4ccc(N[C@H](CCN5CCCOCC5)CSc5ccccc5)c(S(=O)(=O)C(F)(F)F)c4)cc3)CC2)C1 [Compound 139, N-((4-(((R)-4-(1,4-oxazepan-4-yl)-1-(phenylthio)butan-2-yl)amino)-3-((trifluoromethyl)sulfonyl)phenyl)sulfonyl)-4-(4-(((R)-4′-chloro-4-((4-((4-(4-(((S)-2,6-dioxopiperidin-3-yl)carbamoyl)phenyl)piperazin-1-yl)methyl)piperidin-1-yl)methyl)-4-methyl-3,4,5,6-tetrahydro-[1,1′-biphenyl]-2-yl)methyl)piperazin-1-yl)benzamide]
EC50 [1]: 1 to 10 nM
EC50 [2]: 1 to 10 nM

C[C@@]1(CN2CCN(c3ccc(NC4CCC(=O)NC4=O)cc3F)CC2)CCC(c2ccc(Cl)cc2)=C(CN2CCN(c3ccc(C(=O)NS(=O)(=O)c4ccc(N[C@H](CCN5CCCOCC5)CSc5ccccc5)c(S(=O)(=O)C(F)(F)F)c4)cc3)CC2)C1 (stereo partly drawn) [Compound 140, N-((4-(((R)-4-(1,4-oxazepan-4-yl)-1-(phenylthio)butan-2-yl)amino)-3-((trifluoromethyl)sulfonyl)phenyl)sulfonyl)-4-(4-(((4R)-4′-chloro-4-((4-(4-((2,6-dioxopiperidin-3-yl)amino)-2-fluorophenyl)piperazin-1-yl)methyl)-4-methyl-3,4,5,6-tetrahydro-[1,1′-biphenyl]-2-yl)methyl)piperazin-1-yl)benzamide]
EC50 [1]: 10 to 100 nM
EC50 [2]: 1 to 10 nM
